Reference: US7101878B1 (Agouron Pharmaceuticals, Inc., priority 1998, dated 2006)
Read-outs that look alike come from different tables or passages of the source.

Molecular target: T1, human GnRH receptor (Homo sapiens, UniProt P30968)
T1 construct: expressed in transfected cells; host or cells: HEK 293 (hGnRH-R/293, from Dr. Stuart Sealfon)
T1 sequence (P30968 1-328): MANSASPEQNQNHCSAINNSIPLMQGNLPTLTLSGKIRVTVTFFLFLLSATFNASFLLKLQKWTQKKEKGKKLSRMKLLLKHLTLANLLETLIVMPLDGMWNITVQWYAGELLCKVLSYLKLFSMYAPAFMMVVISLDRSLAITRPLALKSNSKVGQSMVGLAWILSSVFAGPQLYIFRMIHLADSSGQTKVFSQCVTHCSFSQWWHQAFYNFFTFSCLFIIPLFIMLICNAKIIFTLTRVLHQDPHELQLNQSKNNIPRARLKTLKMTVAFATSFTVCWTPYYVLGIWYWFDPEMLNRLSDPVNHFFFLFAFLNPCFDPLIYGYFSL
Assay: Radioligand binding, 125I-GnRH-A displacement, membranes of HEK 293 cells with human GnRH receptor
Procedure, shortened: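 After filtration and PBS washes, bound radioactivity was counted by scintillation and IC50 derived. Identical conditions applied for non-human receptors.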

[1] = 1 uM, read-out: % Inhib. @ 1 uM hGnRH
[2] = 1 h, repeat of % Inhib. at 1 uM, read-out: Repeats @ 1 uM hGnRH

| Structure (SMILES) | inhibition at 1 µM [1] | inhibition at 1 µM [2] | further results |
| --- | --- | --- | --- |
| Cc1cc2c(cc1Cc1ccc(C(=O)NCCCN3CCOCC3)o1)C(C)(C)CCC2(C)C [drawing 978] | 57% | 58% | – |
| Cc1cc2c(cc1Cc1ccc(C(=O)NCCCN3CCN(C)CC3)o1)C(C)(C)CCC2(C)C [drawing 980] | 26% | 26% | – |
| Cc1cc2c(cc1Cc1ccc(C(=O)NCC3CCNCC3)o1)C(C)(C)CCC2(C)C [drawing 981] | 20% | 24% | – |
| Cc1cc2c(cc1Cc1ccc(C(=O)NCCN3CCCCC3)o1)C(C)(C)CCC2(C)C [drawing 982] | 15% | 15% | – |
| Cc1cc2c(cc1Cc1ccc(C(=O)NCCCN3CCCCC3C)o1)C(C)(C)CCC2(C)C (stereo not drawn) [drawing 983] | 27% | 31% | – |
| Cc1cc2c(cc1Cc1ccc(C(=O)NCc3ccccn3)o1)C(C)(C)CCC2(C)C [drawing 984] | 62% | 67% | – |
| Cc1cc2c(cc1Cc1ccc(C(=O)NCCc3ccccn3)o1)C(C)(C)CCC2(C)C [drawing 985] | 50% | 62% | – |
| Cc1cc2c(cc1Cc1ccc(C(=O)NCCN3CCCC3)o1)C(C)(C)CCC2(C)C [drawing 986] | -7% | 0% | – |
| Cc1cc2c(cc1Cc1ccc(C(=O)NCCN3CCOCC3)o1)C(C)(C)CCC2(C)C [drawing 987] | 63% | 69% | – |
| Cc1cc2c(cc1Cc1ccc(C(=O)NCCc3ccc(S(N)(=O)=O)cc3)o1)C(C)(C)CCC2(C)C [drawing 989] | 38% | 41% | – |
| Cc1cc2c(cc1Cc1ccc(C(=O)NCCCc3ccccc3)o1)C(C)(C)CCC2(C)C [drawing 990] | 86% | 90% | – |
| CC(=O)NCCNC(=O)c1ccc(Cc2cc3c(cc2C)C(C)(C)CCC3(C)C)o1 [drawing 991] | 52% | 54% | – |
| Cc1cc2c(cc1Cc1ccc(C(=O)NCc3ccc4c(c3)OCO4)o1)C(C)(C)CCC2(C)C [drawing 992] | 75% | 92% | – |
| COc1ccc(CCNC(=O)c2ccc(Cc3cc4c(cc3C)C(C)(C)CCC4(C)C)o2)cc1OC [drawing 993] | 47% | 52% | – |
| COc1cccc(CCNC(=O)c2ccc(Cc3cc4c(cc3C)C(C)(C)CCC4(C)C)o2)c1 [drawing 994] | 49% | 50% | – |
| COc1cc(CNC(=O)c2ccc(Cc3cc4c(cc3C)C(C)(C)CCC4(C)C)o2)cc(OC)c1OC [drawing 995] | 60% | 62% | – |
| COc1ccc(OC)c(CCNC(=O)c2ccc(Cc3cc4c(cc3C)C(C)(C)CCC4(C)C)o2)c1 [drawing 996] | 23% | 36% | – |
| Cc1cc2c(cc1Cc1ccc(C(=O)NCc3ccccc3C(F)(F)F)o1)C(C)(C)CCC2(C)C [drawing 997] | 11% | 6% | – |
| Cc1cc2c(cc1Cc1ccc(C(=O)NCCc3ccc(Cl)cc3Cl)o1)C(C)(C)CCC2(C)C [drawing 998] | 16% | 23% | – |
| Cc1cc2c(cc1Cc1ccc(C(=O)NCCCN(C)c3ccccc3)o1)C(C)(C)CCC2(C)C [drawing 1000] | 67% | 70% | – |
| Cc1cc2c(cc1Cc1ccc(C(=O)Nc3ccc4[nH]c(-c5ccccn5)nc4c3)o1)C(C)(C)CCC2(C)C [drawing 1002] | 13% | 8% | – |
| Cc1cc2c(cc1Cc1ccc(C(=O)NCCCN(C)CCCN)o1)C(C)(C)CCC2(C)C [drawing 1005] | 13% | 33% | – |
| Cc1cc2c(cc1Cc1ccc(C(=O)NCCc3c[nH]c4ccc(Cl)cc34)o1)C(C)(C)CCC2(C)C [drawing 1007] | 31% | 45% | – |
| Cc1cc2c(cc1Cc1ccc(C(=O)Nc3nc(N(C)C)nc4nc[nH]c34)o1)C(C)(C)CCC2(C)C [drawing 1008] | -13% | -9% | – |
| Cc1cnc(CNC(=O)c2ccc(Cc3cc4c(cc3C)C(C)(C)CCC4(C)C)o2)cn1 [drawing 1009] | – | – | inhibition at 1 µM (1 h, read-out: Repeats @ 1 uM hGnRH): 107%; inhibition at 1 µM (read-out: % Inhib. @ 1 uM hGnRH): 102% |
| Cc1cc2c(cc1Cc1ccc(C(=O)NCCc3c[nH]c4ccccc34)o1)C(C)(C)CCC2(C)C [drawing 1012] | 78% | 81% | – |
| Cc1cc2c(cc1Cc1ccc(C(=O)NCc3ccc(-c4csnn4)cc3)o1)C(C)(C)CCC2(C)C [drawing 1013] | 87% | 92% | – |

| Structure (SMILES) | inhibition at 1 µM [1] | inhibition at 1 µM [2] | further results |
| --- | --- | --- | --- |
| Cc1cc2c(cc1Cc1ccc(C(=O)NCc3ccc(C(=O)O)cc3)o1)C(C)(C)CCC2(C)C [drawing 1016] | 44% | 45% | – |
| Cc1cc2c(cc1Cc1ccc(C(=O)NCCc3ccc(N)cc3)o1)C(C)(C)CCC2(C)C [drawing 1017] | 57% | 64% | – |
| Cc1cc2c(cc1Cc1ccc(C(=O)NCC(F)(F)F)o1)C(C)(C)CCC2(C)C [drawing 1018] | 18% | 9% | – |
| Cc1cc2c(cc1Cc1ccc(C(=O)NCCc3cccc(C(F)(F)F)c3)o1)C(C)(C)CCC2(C)C [drawing 1020] | 33% | 89% | – |
| Cc1cc2c(cc1Cc1ccc(C(=O)NCC(=O)Nc3ccc([N+](=O)[O-])cc3)o1)C(C)(C)CCC2(C)C [drawing 1022] | 83% | 86% | – |
| Cc1cc2c(cc1Cc1ccc(C(=O)NCCc3cccs3)o1)C(C)(C)CCC2(C)C [drawing 1023] | 63% | 64% | – |
| Cc1cc2c(cc1Cc1ccc(C(=O)NCC3CCC(C(=O)O)CC3)o1)C(C)(C)CCC2(C)C (stereo not drawn) [drawing 1024] | 66% | 76% | – |
| Cc1cc2c(cc1Cc1ccc(C(=O)NCCc3ccncc3)o1)C(C)(C)CCC2(C)C [drawing 1025] | 83% | 84% | – |
| COc1cc(CNC(=O)c2ccc(Cc3cc4c(cc3C)C(C)(C)CCC4(C)C)o2)cc(OC)c1 [drawing 1026] | 24% | 35% | – |
| CNCCCNC(=O)c1ccc(Cc2cc3c(cc2C)C(C)(C)CCC3(C)C)o1 [drawing 1027] | -22% | -25% | – |
| Cc1cc2c(cc1Cc1ccc(C(=O)NCc3cccc(NC(=O)N(Cc4ccccc4)c4ccccc4)c3)o1)C(C)(C)CCC2(C)C [drawing 1029] | -4% | 2% | – |
| Cc1cc2c(cc1Cc1ccc(C(=O)NCc3ccc(F)c(F)c3)o1)C(C)(C)CCC2(C)C [drawing 1030] | 55% | 60% | – |
| Cc1cc2c(cc1Cc1ccc(C(=O)NCCc3c[nH]cn3)o1)C(C)(C)CCC2(C)C [drawing 1031] | 22% | 28% | – |
| Cc1cc2c(cc1Cc1ccc(C(=O)NCCc3cccnc3)o1)C(C)(C)CCC2(C)C [drawing 1032] | 80% | 90% | – |
| Cc1cc2c(cc1Cc1ccc(C(=O)NCCCNCCCCNCCCN)o1)C(C)(C)CCC2(C)C [drawing 1034] | -20% | -26% | – |
| Cc1cc2c(cc1Cc1ccc(C(=O)NC3CCN(c4nccc(NCC5CCCO5)n4)C3)o1)C(C)(C)CCC2(C)C (stereo not drawn) [drawing 1036] | -12% | 0% | – |
| Cc1cc2c(cc1Cc1ccc(C(=O)NCC3CCN(c4nccc(NCC5CCCO5)n4)CC3)o1)C(C)(C)CCC2(C)C (stereo not drawn) [drawing 1037] | 35% | 35% | – |
| Cc1cc2c(cc1Cc1ccc(C(=O)NCCc3cccc(Oc4ccccc4)c3)o1)C(C)(C)CCC2(C)C [drawing 1039] | -2% | 4% | – |
| Cc1cc2c(cc1Cc1ccc(C(=O)NCCc3ccccc3Oc3ccccc3)o1)C(C)(C)CCC2(C)C [drawing 1040] | -11% | -8% | – |
| Cc1cc2c(cc1Cc1ccc(C(=O)NCCN3CCNC3=O)o1)C(C)(C)CCC2(C)C [drawing 1041] | 32% | 44% | – |
| Cc1cc2c(cc1Cc1ccc(C(=O)NCCNCCNc3ccccc3)o1)C(C)(C)CCC2(C)C [drawing 1043] | -1% | -9% | – |
| Cc1cc2c(cc1Cc1ccc(C(=O)NC3CCCC(Nc4ccnc(NCC5CCCO5)n4)C3)o1)C(C)(C)CCC2(C)C (stereo not drawn) [drawing 1045] | 17% | 25% | – |
| Cc1cc2c(cc1Cc1ccc(C(=O)NCCCCNc3nccc(NCC4CCCO4)n3)o1)C(C)(C)CCC2(C)C (stereo not drawn) [drawing 1047] | 27% | 38% | – |
| Cc1cc2c(cc1Cc1ccc(C(=O)NCC3CN(Cc4ccccc4)CCO3)o1)C(C)(C)CCC2(C)C (stereo not drawn) [drawing 1049] | 35% | 42% | – |
| Cc1cc2c(cc1Cc1ccc(C(=O)NCCCN3CCCCC3)o1)C(C)(C)CCC2(C)C [drawing 1050] | -3% | 8% | – |
| Cc1cc2c(cc1Cc1ccc(C(=O)NCCc3c[nH]cn3)o1)C(C)(C)CCC2(C)C [drawing 1051] | – | – | % Inhib. @ 1 uM hGnRH (1 uM): 32%; Repeats @ 1 uM hGnRH (repeat of % Inhib. at 1 uM): 36 |
| Cc1cc2c(cc1Cc1ccc(C(=O)NCc3ccc(S(N)(=O)=O)cc3)o1)C(C)(C)CCC2(C)C [drawing 1052] | 71% | 76% | – |
